Experimental data published in PMC11728001, “Design, Synthesis, and Biological Evaluation of Novel Urea-Containing Carnosic Acid Derivatives with Anticancer Activity” (International Journal of Molecular Sciences, 2024).
Like-named read-outs stand apart in the source and are kept apart here.

Experiments:
A375 melanoma cells [1] = assay: MTT cell viability assay, A375; format: cell-based; conditions: Homo sapiens, A-375, 72 h incubation, mean ± SD
Description: (§1) The effect of the compounds on cell viability was evaluated using the MTT assay. HCT116 (3000 cells/well), SW620 (8000 cells/well), SW480 (6000 cells/well), Caco-2 (4000 cells/well), A375 (1500 cells/well), MiaPaca-2 (2000 cells/well), and BJ (10,000 cells/well) cells were seeded in 96-well plates. After 24 h, the growth medium was replaced with a fresh medium containing the desired concentration of the compound or DMSO (control). After 72 h of incubation, the supernatant was removed and 100 µL of a mixture (1:1) of filtered MTT solution (1 mg/mL in PBS) with FBS-free medium was added to each well. After 1 h of incubation at 37 °C, the mixture was removed and 100 µL of DMSO was added to each well to dissolve the formed formazan crystals. Absorbance was immediately measured at 570 nm using a Benchmark Plus Microplate Reader (Bio-Rad Laboratories, Hercules, CA, USA). IC50 values were calculated using GraphPad Prism 9 software (GraphPad Software, San Diego, CA, USA) and expressed as the mean ± standard deviation (SD) of at least three independent experiments.

SW480 cells = assay: MTT cell viability assay, SW480; format: cell-based; conditions: Homo sapiens, 72 h incubation, mean ± SD
Description: as §1

[2] = tested on: MiaPaca-2 pancreatic cancer cells; assay: MTT cell viability assay, MiaPaca-2; format: cell-based; conditions: Homo sapiens, MIA PaCa-2, 72 h incubation, mean ± SD
Description: as §1

Caco-2 cells = assay: MTT cell viability assay, Caco-2; format: cell-based; conditions: Homo sapiens, 72 h incubation, mean ± SD
Description: as §1

SW620 cells [3] = assay: MTT cell viability assay, SW620; format: cell-based; conditions: Homo sapiens, SW-620, 72 h incubation, mean ± SD
Description: as §1

[4] = tested on: HCT116 colorectal cancer cell line; assay: MTT cell viability assay, HCT116; format: cell-based; conditions: Homo sapiens, HCT-116, 72 h incubation, mean ± SD
Description: The antiproliferative activity of CA 1 and its derivatives was evaluated against a colorectal cancer (CRC) cell line (HCT116) using the MTT assay. The anticancer drug cisplatin was used as the reference drug.
as §1

[5] = tested on: BJ non-tumoral fibroblast cell line; set-up: method as in PMID 41058673; conditions: obtained previously by the research group, same methodology; cited from earlier work
[6] = tested on: HCT116 colorectal cancer cell line; set-up: method as in PMID 29922789; conditions: MTT, 72 h; obtained previously by the research group, same methodology; cited from earlier work
A375 melanoma cells [7] = tested on: A375 melanoma cells; set-up: method as in PMID 23229057; conditions: from literature, same methodology; cited from earlier work
SW620 cells [8] = tested on: SW620 cells; set-up: method as in PMID 31909511; conditions: obtained previously by the research group, same methodology; cited from earlier work
[9] = tested on: MiaPaca-2 pancreatic cancer cells; set-up: method as in PMID 18007390; conditions: from literature, same methodology; cited from earlier work

## CC(C)c1cc2c(c(O)c1O)[C@@]1(C(=O)O)CCCC(C)(C)[C@@H]1CC2 [CA 1, Carnosic acid]
A375 melanoma cells [1]
  IC50: 27.6 ± 0.5 µM
SW480 cells
  IC50: 21.8 ± 0.7 µM
[2]
  IC50: 21 ± 2 µM
Caco-2 cells
  IC50: 34 ± 2 µM
SW620 cells [3]
  IC50: 18 ± 2 µM
[4]
  IC50: 42 ± 4 µM

## N.N.[Cl][Pt][Cl] [Cisplatin, cisplatin]
[5]
  IC50: 10 ± 2 µM
[6]
  IC50: 21 ± 1 µM
A375 melanoma cells [7]
  IC50: 3 ± 1 µM
SW620 cells [8]
  IC50: 1.4 ± 0.5 µM
[9]
  IC50: 5 ± 1 µM

## CC(=O)Oc1c(C(C)C)cc2c(c1OC(C)=O)[C@@]1(C(=O)O)CCCC(C)(C)[C@@H]1CC2 [Compound 2, (4aR,10aS)-5,6-Diacetoxy-7-isopropyl-1,1-dimethyl-1,3,4,9,10,10a-hexahydrophenanthrene-4a(2H)-carboxylic acid]
[4]
  IC50: 44 ± 4 µM

## CC(=O)Oc1c(C(C)C)cc2c(c1OC(C)=O)[C@@]1(N=C=O)CCCC(C)(C)[C@@H]1CC2 [Compound 5, (4bR, 8aS)-4b-Isocyanato-2-isopropyl-8,8-dimethyl-4b,5,6,7,8,8a,9,10-octahydrophenanthrene-3,4-diyl diacetate]
[4]
  IC50: 28 ± 3 µM

## CNC(=O)N[C@]12CCCC(C)(C)[C@@H]1CCc1cc(C(C)C)c(OC(C)=O)c(OC(C)=O)c12 [Compound 6, (4bR,8aS)-2-isopropyl-8,8-dimethyl-4b-(3-methylureido)-4b,5,6,7,8,8a,9,10-octahydrophenanthrene-3,4-diyl diacetate]
[4]
  IC50: 55 ± 5 µM

## CCNC(=O)N[C@]12CCCC(C)(C)[C@@H]1CCc1cc(C(C)C)c(OC(C)=O)c(OC(C)=O)c12 [Compound 7, (4bR,8aS)-4b-(3-Ethylureido)-2-isopropyl-8,8-dimethyl-4b,5,6,7,8,8a,9,10-octahydrophenanthrene-3,4-diyl diacetate]
[4]
  IC50: 44 ± 4 µM

## CCCNC(=O)N[C@]12CCCC(C)(C)[C@@H]1CCc1cc(C(C)C)c(OC(C)=O)c(OC(C)=O)c12 [Compound 8, (4bR,8aS)-2-isopropyl-8,8-dimethyl-4b-(3-propylureido)-4b,5,6,7,8,8a,9,10-octahydrophenanthrene-3,4-diyl diacetate]
[4]
  IC50: 31 ± 1 µM

## CCCCN(C)C(=O)N[C@]12CCCC(C)(C)[C@@H]1CCc1cc(C(C)C)c(OC(C)=O)c(OC(C)=O)c12 [Compound 9, (4bR,8aS)-4b-(3-butyl-3-methylureido)-2-isopropyl-8,8-dimethyl-4b,5,6,7,8,8a,9,10-octahydrophenanthrene-3,4-diyl diacetate]
[4]
  IC50: 22 ± 1 µM

## CC(=O)Oc1c(C(C)C)cc2c(c1OC(C)=O)[C@@]1(NC(=O)NCC(C)C)CCCC(C)(C)[C@@H]1CC2 [Compound 10, (4bR,8aS)-4b-(3-isobutylureido)-2-isopropyl-8,8-dimethyl-4b,5,6,7,8,8a,9,10-octahydrophenanthrene-3,4-diyl diacetate]
[4]
  IC50: 22 ± 2 µM

## CC(=O)Oc1c(C(C)C)cc2c(c1OC(C)=O)[C@@]1(NC(=O)NCC(C)(C)CN(C)C)CCCC(C)(C)[C@@H]1CC2 [Compound 11, (4bR,8aS)-4b-(3-(3-(dimethylamino)-2,2-dimethylpropyl)ureido)-2-isopropyl-8,8-dimethyl-4b,5,6,7,8,8a,9,10-octahydrophenanthrene-3,4-diyl diacetate]
[4]
  IC50: 30 ± 1 µM

## CONC(=O)N[C@]12CCCC(C)(C)[C@@H]1CCc1cc(C(C)C)c(OC(C)=O)c(OC(C)=O)c12 [Compound 12, (4bR,8aS)-2-isopropyl-4b-(3-methoxyureido)-8,8-dimethyl-4b,5,6,7,8,8a,9,10-octahydrophenanthrene-3,4-diyl diacetate]
[4]
  IC50: 41 ± 3 µM

## CC(=O)Oc1c(C(C)C)cc2c(c1OC(C)=O)[C@@]1(NC(=O)NCCc3ccccc3)CCCC(C)(C)[C@@H]1CC2 [Compound 13, (4bR,8aS)-2-isopropyl-8,8-dimethyl-4b-(3-phenethylureido)-4b,5,6,7,8,8a,9,10-octahydrophenanthrene-3,4-diyl diacetate]
SW480 cells
  IC50: 8.6 ± 0.3 µM
Caco-2 cells
  IC50: 10.9 ± 0.6 µM
SW620 cells [3]
  IC50: 9 ± 1 µM
[4]
  IC50: 14 ± 2 µM

## CC(=O)Oc1c(C(C)C)cc2c(c1OC(C)=O)[C@@]1(NC(=O)NCc3ccncc3)CCCC(C)(C)[C@@H]1CC2 [Compound 15, (4bR,8aS)-2-isopropyl-8,8-dimethyl-4b-(3-(pyridin-4-ylmethyl)ureido)-4b,5,6,7,8,8a,9,10-octahydrophenanthrene-3,4-diyl diacetate]
[4]
  IC50: 33 ± 2 µM

## CC(=O)Oc1c(C(C)C)cc2c(c1OC(C)=O)[C@@]1(NC(=O)NCCCN(C)c3ccccc3)CCCC(C)(C)[C@@H]1CC2 [Compound 16, (4bR,8aS)-2-isopropyl-8,8-dimethyl-4b-(3-(3-(methyl(phenyl)amino)propyl)ureido)-4b,5,6,7,8,8a,9,10-octahydrophenanthrene-3,4-diyl diacetate]
A375 melanoma cells [1]
  IC50: 7.6 ± 0.6 µM
SW480 cells
  IC50: 7.6 ± 0.6 µM
[2]
  IC50: 9.3 ± 0.4 µM
Caco-2 cells
  IC50: 9.6 ± 0.6 µM
SW620 cells [3]
  IC50: 6.4 ± 0.4 µM
[4]
  IC50: 12 ± 0.5 µM

## CC(=O)Oc1c(C(C)C)cc2c(c1OC(C)=O)[C@@]1(NC(=O)NCc3ccoc3)CCCC(C)(C)[C@@H]1CC2 [Compound 17, (4bR,8aS)-4b-(3-(furan-3-ylmethyl)ureido)-2-isopropyl-8,8-dimethyl-4b,5,6,7,8,8a,9,10-octahydrophenanthrene-3,4-diyl diacetate]
[4]
  IC50: 21 ± 2 µM

## CC(=O)Oc1c(C(C)C)cc2c(c1OC(C)=O)[C@@]1(NC(=O)NCC3CCOCC3)CCCC(C)(C)[C@@H]1CC2 [Compound 18, (4bR,8aS)-2-isopropyl-8,8-dimethyl-4b-(3-((tetrahydro-2H-pyran-4-yl)methyl)ureido)-4b,5,6,7,8,8a,9,10-octahydrophenanthrene-3,4-diyl diacetate]
[4]
  IC50: 51 ± 5 µM

## CC(=O)Oc1c(C(C)C)cc2c(c1OC(C)=O)[C@@]1(NC(=O)NC3COC3)CCCC(C)(C)[C@@H]1CC2 [Compound 19, (4bR,8aS)-2-isopropyl-8,8-dimethyl-4b-(3-(oxetan-3-yl)ureido)-4b,5,6,7,8,8a,9,10-octahydrophenanthrene-3,4-diyl diacetate]
[4]
  IC50: > 60 µM

## CC(=O)Oc1c(C(C)C)cc2c(c1OC(C)=O)[C@@]1(NC(=O)NCC3(C)COC3)CCCC(C)(C)[C@@H]1CC2 [Compound 20, (4bR,8aS)-2-isopropyl-8,8-dimethyl-4b-(3-((3-methyloxetan-3-yl)methyl)ureido)-4b,5,6,7,8,8a,9,10-octahydrophenanthrene-3,4-diyl diacetate]
[4]
  IC50: 46 ± 2 µM
